Key:
[1] = system: FaDu human head and neck cancer xenograft; assay: Tumor growth and response to therapy in FaDu xenograft; format: in vivo, nude mice (nu/nu)
Protocol: Ninety (90) male nude mice (nu/nu) were divided into nine (9) groups of ten […]) mice per group. To ensure that a sufficient number of tumor-bearing animals were available for this study, a total of 100 mice were inoculated s.c. in the flank with 1×10^6 FaDu cells. FaDu (HTB-43) human head and neck cancer cells were obtained from ATCC. These cells were grown in EMEM medium supplemented with 10% Fetal Calf Serum (FCS), 1% penicillin and streptomycin, and 2 mM L-Glutamine. […] The flask was incubated at 37° C. until cells detached. Cells were then sub-cultured at a ratio of 1:3. […] Tumors were measured once every two days with micro-calipers, and tumor volume was calculated as (length×width×width)/2. Where animals were euthanized for tumor volume exceeding the maximum permissible by IACUC rules (1500 mm^3) or tumor ulceration, the last measurement was carried forward in calculations of mean tumor volume.
All animals were weighed every day and their survival recorded, to assess possible differences in animal weight among treatment groups as an indication of possible toxicity resulting from the treatments. […] Any animals whose tumor grew to over 1500 mm^3 were also euthanized.
Further analysis of the tumor volume data was performed by calculating the mean area under the curve (AUC) for the tumor volume for each animal and comparing the groups using an ANOVA on ranks test. Due to the impact of animals euthanized for tumor ulceration or volume in excess of 1500 mm^3, this analysis was performed on data to Day 15 as well as on the full data set to Day 29.

[2] = system: radiation-induced oral mucositis, left buccal cheek pouch; conditions: Acute Radiation; published results in nearly identical models; cited from earlier work
[3] = system: fractionated radiation and cisplatin induced oral mucositis, left buccal cheek pouch; conditions: published results in nearly identical models; cited from earlier work
[4] = groups receiving cisplatin chemotherapy 5 mg/kg (with vehicle or Compound X)

Structure (SMILES)	mean weight gain ([1]; cisplatin 5 mg/kg plus vehicle, by Day 15)	average gain of starting weight ([1]; cisplatin 5 mg/kg plus vehicle, by the end of the study)	p, tumor volume AUC to Day 15 vs vehicle control group (ANOVA on ranks) ([1]; cisplatin plus vehicle)	mean tumor volume ([1]; cisplatin plus vehicle, Day 1)	mean tumor volume ([1]; cisplatin plus vehicle, Day 15)	mean tumor volume ([1]; cisplatin plus vehicle, end of the study)	animals euthanized for tumor size [1, 4]	animals euthanized for tumor ulceration [1, 4]	animals survived [1, 4]	% reduction of animal days with OM scores ≥ 3 [2]	% reduction of animal days with OM scores ≥ 3 [3]
N.N.[Cl][Pt][Cl] [cisplatin, reference compound]	7.2%	13.0%	0.011	100 mm^3	652 mm^3	302 mm^3	23%	26.7%	50%	–	–
N[C@H](CCC(=O)N[C@@H](Cc1c[nH]c2ccccc12)C(=O)O)C(=O)O [SCV-07]	–	–	–	–	–	–	–	–	–	68.3%-77.6%	33.3%
